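Grown in 96-well plates, cells were treated for 48 hours with each compound at five concentrations. Insufficient inhibition: endpoint recorded as highest concentration tested. Abbreviation: GI50, concentration required for 50% inhibition of growth. TGI marks complete inhibition of growth.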
How the values were obtained:
Assay in all cases: inhibition of tumour cell growth, NCI panel, 48 h
NCI-H226 lung = system: NCI-H226 lung
SK-MEL-5 melanoma = system: SK-MEL-5 melanoma
A549 NSCLC = system: A549 NSCLC
HCT-15 colon = system: HCT-15 colon
NCI/ADR-RES ovarian = system: NCI/ADR-RES ovarian
OVCAR-4 ovarian = system: OVCAR-4 ovarian
HS 578T breast = system: HS 578T breast
SNB-75 CNS = system: SNB-75 CNS
HCT-116 colon = system: HCT-116 colon
RXF 393 renal = system: RXF 393 renal
MDA-MB-435 = system: MDA-MB-435
PC-3 prostate = system: PC-3 prostate
SK-OV-3 ovarian = system: SK-OV-3 ovarian
OVCAR-3 ovarian = system: OVCAR-3 ovarian
SNB-19 CNS = system: SNB-19 CNS
CCRF-CEM leukemia = system: CCRF-CEM leukemia
MDA-MB-231 breast = system: MDA-MB-231 breast
UACC-62 melanoma = system: UACC-62 melanoma
U251 CNS = system: U251 CNS
CAKI-1 renal = system: CAKI-1 renal
SK-MEL-28 melanoma = system: SK-MEL-28 melanoma
EKVX NSCLC = system: EKVX NSCLC
786-0 renal = system: 786-0 renal
NCI-H522 lung = system: NCI-H522 lung
HOP-62 NSCLC = system: HOP-62 NSCLC
SW-620 colon = system: SW-620 colon
NCI-H23 lung = system: NCI-H23 lung
HOP-92 NSCLC = system: HOP-92 NSCLC
LOX IMVI melanoma = system: LOX IMVI melanoma
T-47D breast = system: T-47D breast
SN12C renal = system: SN12C renal
HCC-2998 colon = system: HCC-2998 colon
NCI-H460 lung = system: NCI-H460 lung
UO-31 renal = system: UO-31 renal
MOLT-4 leukemia = system: MOLT-4 leukemia
HT29 colon = system: HT29 colon
KM12 colon = system: KM12 colon
DU-145 prostate = system: DU-145 prostate
IGROV1 ovarian = system: IGROV1 ovarian
HL-60(TB) leukemia = system: HL-60(TB) leukemia
OVCAR-5 ovarian = system: OVCAR-5 ovarian
MALME-3M melanoma = system: MALME-3M melanoma
SF-268 CNS = system: SF-268 CNS
UACC-257 melanoma = system: UACC-257 melanoma
M14 melanoma = system: M14 melanoma
TK-10 renal = system: TK-10 renal
COLO 205 colon = system: COLO 205 colon
BT-549 breast = system: BT-549 breast
SF-539 CNS = system: SF-539 CNS
ACHN renal = system: ACHN renal
RPMI-8226 leukemia = system: RPMI-8226 leukemia
SF-295 CNS = system: SF-295 CNS
K-562 leukemia = system: K-562 leukemia
SR leukemia = system: SR leukemia
A498 renal = system: A498 renal
MCF7 breast = system: MCF7 breast
SK-MEL-2 melanoma = system: SK-MEL-2 melanoma
OVCAR-8 ovarian = system: OVCAR-8 ovarian

CCC(=C(c1ccc(OCCCN(C)C)cc1)c1ccc(OCCCN(C)C)cc1)c1ccc(Cl)cc1
GI50 (NCI-H226 lung): 2.65 µM | TGI (NCI-H226 lung): 5.57 µM | GI50 (SK-MEL-5 melanoma): 2.02 µM | TGI (SK-MEL-5 melanoma): 4.37 µM | GI50 (A549 NSCLC): 0.601 µM | TGI (A549 NSCLC): 2.46 µM | GI50 (HCT-15 colon): 0.365 µM | TGI (HCT-15 colon): 0.864 µM | GI50 (NCI/ADR-RES ovarian): 1.95 µM | TGI (NCI/ADR-RES ovarian): 4.14 µM | GI50 (OVCAR-4 ovarian): 0.922 µM | TGI (OVCAR-4 ovarian): 2.41 µM | GI50 (HS 578T breast): 2.3 µM | TGI (HS 578T breast): 5.35 µM | GI50 (SNB-75 CNS): 1.56 µM | TGI (SNB-75 CNS): 3.89 µM | GI50 (HCT-116 colon): 0.447 µM | TGI (HCT-116 colon): 1.15 µM | GI50 (RXF 393 renal): 0.977 µM | TGI (RXF 393 renal): 3.4 µM | GI50 (MDA-MB-435): 0.292 µM | TGI (MDA-MB-435): 0.556 µM | GI50 (PC-3 prostate): 1.09 µM | TGI (PC-3 prostate): 3.39 µM | GI50 (SK-OV-3 ovarian): 2.81 µM | TGI (SK-OV-3 ovarian): 5.36 µM | GI50 (OVCAR-3 ovarian): 0.429 µM | TGI (OVCAR-3 ovarian): 1.08 µM | GI50 (SNB-19 CNS): 0.921 µM | TGI (SNB-19 CNS): 3.05 µM | GI50 (CCRF-CEM leukemia): 0.392 µM | TGI (CCRF-CEM leukemia): 1.13 µM | GI50 (MDA-MB-231 breast): 0.413 µM | TGI (MDA-MB-231 breast): 1.07 µM | GI50 (UACC-62 melanoma): 0.345 µM | TGI (UACC-62 melanoma): 0.782 µM | GI50 (U251 CNS): 0.419 µM | TGI (U251 CNS): 1.1 µM | GI50 (CAKI-1 renal): 0.56 µM | TGI (CAKI-1 renal): 2.19 µM | GI50 (SK-MEL-28 melanoma): 0.324 µM | TGI (SK-MEL-28 melanoma): 0.652 µM | GI50 (EKVX NSCLC): 2.43 µM | TGI (EKVX NSCLC): 4.9 µM | GI50 (786-0 renal): 0.35 µM | TGI (786-0 renal): 0.759 µM | GI50 (NCI-H522 lung): 0.48 µM | TGI (NCI-H522 lung): 1.69 µM | GI50 (HOP-62 NSCLC): 2.31 µM | TGI (HOP-62 NSCLC): 5.1 µM | GI50 (SW-620 colon): 0.314 µM | TGI (SW-620 colon): 0.648 µM | GI50 (NCI-H23 lung): 2.5 µM | TGI (NCI-H23 lung): 4.98 µM | GI50 (HOP-92 NSCLC): 0.945 µM | TGI (HOP-92 NSCLC): 3.42 µM | GI50 (LOX IMVI melanoma): 0.287 µM | TGI (LOX IMVI melanoma): 0.541 µM | GI50 (T-47D breast): 0.86 µM | TGI (T-47D breast): 3.16 µM | GI50 (SN12C renal): 2.18 µM | TGI (SN12C renal): 4.55 µM | GI50 (HCC-2998 colon): 0.51 µM | TGI (HCC-2998 colon): 1.54 µM | GI50 (NCI-H460 lung): 0.457 µM | TGI (NCI-H460 lung): 1.23 µM | GI50 (UO-31 renal): 0.269 µM | TGI (UO-31 renal): 0.58 µM | GI50 (MOLT-4 leukemia): 0.379 µM | TGI (MOLT-4 leukemia): 0.948 µM | GI50 (HT29 colon): 0.395 µM | TGI (HT29 colon): 0.966 µM | GI50 (KM12 colon): 1.26 µM | TGI (KM12 colon): 3.43 µM | GI50 (DU-145 prostate): 1.01 µM | TGI (DU-145 prostate): 3.16 µM | GI50 (IGROV1 ovarian): 0.429 µM | TGI (IGROV1 ovarian): 1.15 µM | GI50 (HL-60(TB) leukemia): 0.372 µM | TGI (HL-60(TB) leukemia): 0.941 µM | GI50 (OVCAR-5 ovarian): 2.48 µM | TGI (OVCAR-5 ovarian): 4.8 µM | GI50 (MALME-3M melanoma): 0.36 µM | TGI (MALME-3M melanoma): 0.973 µM | GI50 (SF-268 CNS): 1.04 µM | TGI (SF-268 CNS): 2.72 µM | GI50 (UACC-257 melanoma): 0.883 µM | TGI (UACC-257 melanoma): 2.24 µM | GI50 (M14 melanoma): 0.302 µM | TGI (M14 melanoma): 0.577 µM | GI50 (TK-10 renal): 3.26 µM | TGI (TK-10 renal): 6.01 µM | GI50 (COLO 205 colon): 0.399 µM | TGI (COLO 205 colon): 1.04 µM | GI50 (BT-549 breast): 2.54 µM | TGI (BT-549 breast): 4.94 µM | GI50 (SF-539 CNS): 0.301 µM | TGI (SF-539 CNS): 0.604 µM | GI50 (ACHN renal): 0.469 µM | TGI (ACHN renal): 1.36 µM | GI50 (RPMI-8226 leukemia): 0.366 µM | TGI (RPMI-8226 leukemia): 0.871 µM | GI50 (SF-295 CNS): 2.35 µM | TGI (SF-295 CNS): 4.61 µM | GI50 (K-562 leukemia): 0.324 µM | TGI (K-562 leukemia): 0.78 µM | GI50 (SR leukemia): 0.288 µM | TGI (SR leukemia): 0.716 µM | GI50 (A498 renal): 1.7 µM | TGI (A498 renal): 4.39 µM | GI50 (MCF7 breast): 0.216 µM | TGI (MCF7 breast): 0.524 µM | GI50 (SK-MEL-2 melanoma): 2.63 µM | TGI (SK-MEL-2 melanoma): 5.37 µM | GI50 (OVCAR-8 ovarian): 0.933 µM | TGI (OVCAR-8 ovarian): 3.37 µM
